From ChEMBL document CHEMBL1921790, “Synthesis and antimicrobial activity of brominated resorcinol dimers” (Bioorg Med Chem Lett, 2011)
Converted amounts (≈) assume the structure as drawn.

The compounds below were run on Micrococcus luteus (assay: Antibacterial activity against Micrococcus luteus IFC 12708 after 24 hrs by two fold serial dilution method). Settings: IFC 12708, 24 h.
Format: functional

Point of comparison: `O=[N+]([O-])c1ccc(C(c2cc(Br)c(O)cc2O)c2cc(Br)c(O)cc2O)cc1`, MIC 12.5 µg/mL (≈ 24.5 µM). Against it:
- CCCCCC(c1cc(Br)c(O)cc1O)c1cc(Br)c(O)cc1O — 8-fold lower, 1.56 µg/mL (≈ 3.39 µM)
- Oc1ccc(C(c2cc(Br)c(O)cc2O)c2cc(Br)c(O)cc2O)cc1 — 16-fold lower, 0.78 µg/mL (≈ 1.62 µM)
- Oc1cc(O)c(C(c2cc(Br)c(O)cc2O)c2c(Cl)cccc2Cl)cc1Br — 8-fold lower, 1.56 µg/mL (≈ 2.92 µM)
- O=[N+]([O-])c1cccc(C(c2cc(Br)c(O)cc2O)c2cc(Br)c(O)cc2O)c1 — 8-fold lower, 1.56 µg/mL (≈ 3.05 µM)
- CCCCCC(c1ccc(O)cc1O)c1cc(Br)c(O)cc1O (stereo unspecified) — 4-fold lower, 3.12 µg/mL (≈ 8.18 µM)

The compounds below were run on Trichophyton mentagrophytes (assay: Antifungal activity against Trichophyton mentagrophytes IFO 40996 after 48 to 72 hrs by two fold serial dilution method). Settings: not given.
Format: functional

Point of comparison: `CCCCCC(c1cc(Br)c(O)cc1O)c1cc(Br)c(O)cc1O`, MIC 25 µg/mL (≈ 54.3 µM). Against it:
- Oc1ccc(C(c2cc(Br)c(O)cc2O)c2cc(Br)c(O)cc2O)cc1 — 4-fold higher, 100 µg/mL (≈ 207 µM)
- Oc1cc(O)c(C(c2cc(Br)c(O)cc2O)c2c(Cl)cccc2Cl)cc1Br — 4-fold higher, 100 µg/mL (≈ 187 µM)
- O=[N+]([O-])c1cccc(C(c2cc(Br)c(O)cc2O)c2cc(Br)c(O)cc2O)c1 — 4-fold higher, 100 µg/mL (≈ 196 µM)
- O=[N+]([O-])c1ccc(C(c2cc(Br)c(O)cc2O)c2cc(Br)c(O)cc2O)cc1 — higher, > 100 µg/mL
- CCCCCC(c1ccc(O)cc1O)c1cc(Br)c(O)cc1O (stereo unspecified) — 2-fold higher, 50 µg/mL (≈ 131 µM)

The compounds below were run on Candida albicans (assay: Antifungal activity against Candida albicans ATCC 10231 after 24 to 72 hrs by two fold serial dilution method). Settings: not given.
Format: functional

Point of comparison: `CCCCCC(c1ccc(O)cc1O)c1cc(Br)c(O)cc1O` (stereo unspecified), MIC 50 µg/mL (≈ 131 µM). Against it:
- CCCCCC(c1cc(Br)c(O)cc1O)c1cc(Br)c(O)cc1O — 2-fold lower, 25 µg/mL (≈ 54.3 µM)
- Oc1ccc(C(c2cc(Br)c(O)cc2O)c2cc(Br)c(O)cc2O)cc1 — the same, 50 µg/mL (≈ 104 µM)
- Oc1cc(O)c(C(c2cc(Br)c(O)cc2O)c2c(Cl)cccc2Cl)cc1Br — 2-fold higher, 100 µg/mL (≈ 187 µM)
- O=[N+]([O-])c1cccc(C(c2cc(Br)c(O)cc2O)c2cc(Br)c(O)cc2O)c1 — the same, 50 µg/mL (≈ 97.8 µM)
- O=[N+]([O-])c1ccc(C(c2cc(Br)c(O)cc2O)c2cc(Br)c(O)cc2O)cc1 — higher, > 100 µg/mL

These compounds were tested on Trichophyton rubrum (assay: Antifungal activity against Trichophyton rubrum IFO 9185 after 48 to 72 hrs by two fold serial dilution method). Settings: not given.
Format: functional

Point of comparison: `O=[N+]([O-])c1cccc(C(c2cc(Br)c(O)cc2O)c2cc(Br)c(O)cc2O)c1`, MIC 100 µg/mL (≈ 196 µM). Against it:
- CCCCCC(c1cc(Br)c(O)cc1O)c1cc(Br)c(O)cc1O — 8-fold lower, 12.5 µg/mL (≈ 27.2 µM)
- Oc1ccc(C(c2cc(Br)c(O)cc2O)c2cc(Br)c(O)cc2O)cc1 — the same, 100 µg/mL (≈ 207 µM)
- Oc1cc(O)c(C(c2cc(Br)c(O)cc2O)c2c(Cl)cccc2Cl)cc1Br — higher, > 100 µg/mL
- O=[N+]([O-])c1ccc(C(c2cc(Br)c(O)cc2O)c2cc(Br)c(O)cc2O)cc1 — higher, > 100 µg/mL
- CCCCCC(c1ccc(O)cc1O)c1cc(Br)c(O)cc1O (stereo unspecified) — 2-fold lower, 50 µg/mL (≈ 131 µM)

Each compound was assayed on Proteus vulgaris (assay: Antibacterial activity against Proteus vulgaris ATCC 3851 after 24 hrs by two fold serial dilution method). Settings: ATCC 3851, 24 h.
Format: functional

Point of comparison: `Oc1ccc(C(c2cc(Br)c(O)cc2O)c2cc(Br)c(O)cc2O)cc1`, MIC 0.78 µg/mL (≈ 1.62 µM). Against it:
- CCCCCC(c1cc(Br)c(O)cc1O)c1cc(Br)c(O)cc1O — 2-fold higher, 1.56 µg/mL (≈ 3.39 µM)
- Oc1cc(O)c(C(c2cc(Br)c(O)cc2O)c2c(Cl)cccc2Cl)cc1Br — 2-fold higher, 1.56 µg/mL (≈ 2.92 µM)
- O=[N+]([O-])c1cccc(C(c2cc(Br)c(O)cc2O)c2cc(Br)c(O)cc2O)c1 — 2-fold higher, 1.56 µg/mL (≈ 3.05 µM)
- O=[N+]([O-])c1ccc(C(c2cc(Br)c(O)cc2O)c2cc(Br)c(O)cc2O)cc1 — 32-fold higher, 25 µg/mL (≈ 48.9 µM)
- CCCCCC(c1ccc(O)cc1O)c1cc(Br)c(O)cc1O (stereo unspecified) — 4-fold higher, 3.12 µg/mL (≈ 8.18 µM)

What follows are compounds tested on Escherichia coli (assay: Antibacterial activity against Escherichia coli ATCC 25922 after 24 hrs by two fold serial dilution method). Settings: ATCC 25922, 24 h.
Format: functional

Point of comparison: `CCCCCC(c1cc(Br)c(O)cc1O)c1cc(Br)c(O)cc1O`, MIC 50 µg/mL (≈ 109 µM). Against it:
- Oc1ccc(C(c2cc(Br)c(O)cc2O)c2cc(Br)c(O)cc2O)cc1 — higher, > 100 µg/mL
- Oc1cc(O)c(C(c2cc(Br)c(O)cc2O)c2c(Cl)cccc2Cl)cc1Br — 2-fold higher, 100 µg/mL (≈ 187 µM)
- O=[N+]([O-])c1cccc(C(c2cc(Br)c(O)cc2O)c2cc(Br)c(O)cc2O)c1 — higher, > 100 µg/mL
- O=[N+]([O-])c1ccc(C(c2cc(Br)c(O)cc2O)c2cc(Br)c(O)cc2O)cc1 — higher, > 100 µg/mL
- CCCCCC(c1ccc(O)cc1O)c1cc(Br)c(O)cc1O (stereo unspecified) — 2-fold higher, 100 µg/mL (≈ 262 µM)

These compounds were tested on Staphylococcus aureus (assay: Antibacterial activity against Staphylococcus aureus ATCC 6538p after 24 hrs by two fold serial dilution method). Settings: not given.
Format: functional

Point of comparison: `CCCCCC(c1ccc(O)cc1O)c1cc(Br)c(O)cc1O` (stereo unspecified), MIC 6.25 µg/mL (≈ 16.4 µM). Against it:
- CCCCCC(c1cc(Br)c(O)cc1O)c1cc(Br)c(O)cc1O — 2-fold lower, 3.12 µg/mL (≈ 6.78 µM)
- Oc1ccc(C(c2cc(Br)c(O)cc2O)c2cc(Br)c(O)cc2O)cc1 — 8-fold lower, 0.78 µg/mL (≈ 1.62 µM)
- Oc1cc(O)c(C(c2cc(Br)c(O)cc2O)c2c(Cl)cccc2Cl)cc1Br — the same, 6.25 µg/mL (≈ 11.7 µM)
- O=[N+]([O-])c1cccc(C(c2cc(Br)c(O)cc2O)c2cc(Br)c(O)cc2O)c1 — 2-fold lower, 3.12 µg/mL (≈ 6.1 µM)
- O=[N+]([O-])c1ccc(C(c2cc(Br)c(O)cc2O)c2cc(Br)c(O)cc2O)cc1 — 4-fold higher, 25 µg/mL (≈ 48.9 µM)

These compounds were tested on Bacillus subtilis (assay: Antibacterial activity against Bacillus subtilis ATCC 6633 after 24 hrs by two fold serial dilution method). Settings: ATCC 6633, 24 h.
Format: functional

Point of comparison: `O=[N+]([O-])c1ccc(C(c2cc(Br)c(O)cc2O)c2cc(Br)c(O)cc2O)cc1`, MIC 12.5 µg/mL (≈ 24.5 µM). Against it:
- CCCCCC(c1cc(Br)c(O)cc1O)c1cc(Br)c(O)cc1O — 8-fold lower, 1.56 µg/mL (≈ 3.39 µM)
- Oc1ccc(C(c2cc(Br)c(O)cc2O)c2cc(Br)c(O)cc2O)cc1 — 16-fold lower, 0.78 µg/mL (≈ 1.62 µM)
- Oc1cc(O)c(C(c2cc(Br)c(O)cc2O)c2c(Cl)cccc2Cl)cc1Br — 8-fold lower, 1.56 µg/mL (≈ 2.92 µM)
- O=[N+]([O-])c1cccc(C(c2cc(Br)c(O)cc2O)c2cc(Br)c(O)cc2O)c1 — 8-fold lower, 1.56 µg/mL (≈ 3.05 µM)
- CCCCCC(c1ccc(O)cc1O)c1cc(Br)c(O)cc1O (stereo unspecified) — 4-fold lower, 3.12 µg/mL (≈ 8.18 µM)

These compounds were tested on Salmonella typhimurium (assay: Antibacterial activity against Salmonella Typhimurium ATCC 14028 after 24 hrs by two fold serial dilution method). Settings: Salmonella enterica, ATCC 14028, 24 h.
Format: functional, Salmonella enterica subsp. enterica serovar Typhimurium

Point of comparison: `CCCCCC(c1ccc(O)cc1O)c1cc(Br)c(O)cc1O` (stereo unspecified), MIC 3.12 µg/mL (≈ 8.18 µM). Against it:
- CCCCCC(c1cc(Br)c(O)cc1O)c1cc(Br)c(O)cc1O — the same, 3.12 µg/mL (≈ 6.78 µM)
- Oc1ccc(C(c2cc(Br)c(O)cc2O)c2cc(Br)c(O)cc2O)cc1 — 2-fold lower, 1.56 µg/mL (≈ 3.24 µM)
- Oc1cc(O)c(C(c2cc(Br)c(O)cc2O)c2c(Cl)cccc2Cl)cc1Br — 2-fold higher, 6.25 µg/mL (≈ 11.7 µM)
- O=[N+]([O-])c1cccc(C(c2cc(Br)c(O)cc2O)c2cc(Br)c(O)cc2O)c1 — the same, 3.12 µg/mL (≈ 6.1 µM)
- O=[N+]([O-])c1ccc(C(c2cc(Br)c(O)cc2O)c2cc(Br)c(O)cc2O)cc1 — 8-fold higher, 25 µg/mL (≈ 48.9 µM)

Each compound was assayed on Aspergillus fumigatus (assay: Antifungal activity against Aspergillus fumigatus HIC 6094 after 48 to 72 hrs by two fold serial dilution method). Settings: not given.
Format: functional

Point of comparison: `Oc1cc(O)c(C(c2cc(Br)c(O)cc2O)c2c(Cl)cccc2Cl)cc1Br`, MIC 100 µg/mL (≈ 187 µM). Against it:
- CCCCCC(c1cc(Br)c(O)cc1O)c1cc(Br)c(O)cc1O — 8-fold lower, 12.5 µg/mL (≈ 27.2 µM)
- Oc1ccc(C(c2cc(Br)c(O)cc2O)c2cc(Br)c(O)cc2O)cc1 — 2-fold lower, 50 µg/mL (≈ 104 µM)
- O=[N+]([O-])c1cccc(C(c2cc(Br)c(O)cc2O)c2cc(Br)c(O)cc2O)c1 — the same, 100 µg/mL (≈ 196 µM)
- O=[N+]([O-])c1ccc(C(c2cc(Br)c(O)cc2O)c2cc(Br)c(O)cc2O)cc1 — higher, > 100 µg/mL
- CCCCCC(c1ccc(O)cc1O)c1cc(Br)c(O)cc1O (stereo unspecified) — 2-fold lower, 50 µg/mL (≈ 131 µM)

These compounds were tested against Isocitrate lyase (Candida albicans, UniProt Q9P8Q7) (assay: Inhibition of Candida albicans isocitrate lyase after 30 mins). Settings: not given.
Chain of Isocitrate lyase (Q9P8Q7 whole entry): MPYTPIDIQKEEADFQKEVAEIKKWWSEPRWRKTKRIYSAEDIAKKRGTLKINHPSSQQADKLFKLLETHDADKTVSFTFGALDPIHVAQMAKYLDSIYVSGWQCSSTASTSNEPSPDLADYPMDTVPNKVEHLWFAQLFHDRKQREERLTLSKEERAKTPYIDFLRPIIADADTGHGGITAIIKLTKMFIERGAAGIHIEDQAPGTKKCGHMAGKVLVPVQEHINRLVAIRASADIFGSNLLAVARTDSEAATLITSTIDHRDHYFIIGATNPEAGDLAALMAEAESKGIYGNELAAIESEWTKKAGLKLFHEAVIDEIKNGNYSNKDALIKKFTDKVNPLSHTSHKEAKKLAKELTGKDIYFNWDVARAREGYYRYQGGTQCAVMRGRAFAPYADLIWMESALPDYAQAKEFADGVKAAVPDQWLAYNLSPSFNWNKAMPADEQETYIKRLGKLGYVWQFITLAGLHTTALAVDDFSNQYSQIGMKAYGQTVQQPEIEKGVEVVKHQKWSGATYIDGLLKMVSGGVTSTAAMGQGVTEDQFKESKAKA

Point of comparison: `Oc1cc(O)c(C(c2cc(Br)c(O)cc2O)c2c(Cl)cccc2Cl)cc1Br`, IC50 17.9 µM. Against it:
- CCCCCC(c1cc(Br)c(O)cc1O)c1cc(Br)c(O)cc1O — 1.6-fold higher, 28 µM
- Oc1ccc(C(c2cc(Br)c(O)cc2O)c2cc(Br)c(O)cc2O)cc1 — within 1.5-fold, 25.9 µM
- O=[N+]([O-])c1cccc(C(c2cc(Br)c(O)cc2O)c2cc(Br)c(O)cc2O)c1 — within 1.5-fold, 26.8 µM
- O=[N+]([O-])c1ccc(C(c2cc(Br)c(O)cc2O)c2cc(Br)c(O)cc2O)cc1 — within 1.5-fold, 20.7 µM
- CCCCCC(c1ccc(O)cc1O)c1cc(Br)c(O)cc1O (stereo unspecified) — 2.6-fold higher, 46.6 µM
